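Exposure lasted 48 hours, with cells grown in 96-well plates and compounds tested at five concentrations. The concentration for 50% growth inhibition is given as GI50.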 Activity calls are given as the source filed them. Cut-off read from the data, not from the text of the source: active = GI50 up to about 1.1 µM and inactive = higher.
Assays:
Assay in all cases: DTP human tumour cell line panel, 48 h
OVCAR-4 = tested on: OVCAR-4
BT-549 = tested on: BT-549
OVCAR-5 = tested on: OVCAR-5
NCI-H522 = tested on: NCI-H522
MOLT-4 = tested on: MOLT-4
M14 = tested on: M14
CCRF-CEM = tested on: CCRF-CEM
COLO 205 = tested on: COLO 205
UACC-62 = tested on: UACC-62
OVCAR-3 = tested on: OVCAR-3
T47D = tested on: T47D
HL-60 = tested on: HL-60
SNB-19 = tested on: SNB-19
MCF7 = tested on: MCF7
PC-3 = tested on: PC-3
KM12 = tested on: KM12
U-251 = tested on: U-251
A498 = tested on: A498
SNB-75 = tested on: SNB-75

Measured: GI50

O=C1CC(c2ccccc2)n2c(nc3ccccc32)N1 (centres undefined)
inactive: OVCAR-4 > 100 µM | BT-549 29.2 µM | OVCAR-5 > 100 µM | NCI-H522 29.9 µM | MOLT-4 65.8 µM | M14 > 100 µM | CCRF-CEM > 10 µM | COLO 205 > 100 µM | UACC-62 72.9 µM | OVCAR-3 54.2 µM | T47D 25.4 µM | HL-60 16.8 µM | SNB-19 > 100 µM | MCF7 67.1 µM | PC-3 > 100 µM | KM12 > 100 µM | U-251 71.8 µM | A498 45.5 µM

CC(C)C(=O)NCC[C@@H](CNC(=O)OC(C)(C)C)NC(=O)OC(C)(C)C
inactive: OVCAR-4 > 100 µM | BT-549 > 100 µM | OVCAR-5 > 100 µM | NCI-H522 > 100 µM | MOLT-4 > 100 µM | M14 > 100 µM | CCRF-CEM > 100 µM | COLO 205 > 100 µM | UACC-62 > 100 µM | OVCAR-3 > 100 µM | T47D > 100 µM | SNB-19 > 100 µM | MCF7 > 100 µM | PC-3 > 100 µM | KM12 > 100 µM | U-251 > 100 µM | A498 > 100 µM | SNB-75 > 100 µM

NNC(=O)C(O)C(O)C(=O)NN (centres undefined)
inactive: OVCAR-4 > 100 µM | BT-549 > 100 µM | OVCAR-5 > 100 µM | NCI-H522 54.5 µM | MOLT-4 64.3 µM | M14 > 100 µM | CCRF-CEM > 100 µM | COLO 205 > 100 µM | UACC-62 > 100 µM | OVCAR-3 > 100 µM | T47D > 100 µM | SNB-19 > 100 µM | MCF7 > 100 µM | PC-3 > 100 µM | KM12 > 100 µM | U-251 > 100 µM | A498 > 100 µM | SNB-75 > 100 µM

CC(C)(C)OC(=O)NC(Cc1ccc(OCc2ccccc2)cn1)C(=O)N1CCSCC1 (centres undefined)
inactive: BT-549 27.9 µM | OVCAR-5 93.1 µM | NCI-H522 32.9 µM | MOLT-4 22.9 µM | M14 54.8 µM | CCRF-CEM 29.9 µM | COLO 205 18.6 µM | UACC-62 52.5 µM | OVCAR-3 62.2 µM | T47D 20.8 µM | HL-60 16.4 µM | SNB-19 > 100 µM | MCF7 38.3 µM | PC-3 31.4 µM | KM12 36.4 µM | U-251 74.3 µM | A498 45.4 µM | SNB-75 24 µM

Cc1nc2c(=O)[nH]c3ccc(Cl)cc3c2o1
inactive: OVCAR-4 > 100 µM | BT-549 > 100 µM | OVCAR-5 > 100 µM | NCI-H522 > 100 µM | MOLT-4 > 100 µM | M14 > 100 µM | CCRF-CEM > 100 µM | COLO 205 > 100 µM | UACC-62 > 100 µM | OVCAR-3 > 100 µM | T47D > 100 µM | SNB-19 > 100 µM | MCF7 > 100 µM | PC-3 > 100 µM | KM12 > 100 µM | U-251 > 100 µM | A498 > 100 µM | SNB-75 > 100 µM

COC(=O)[C@]12CC[C@H]3CN(C(=O)OCc4ccccc4)[C@H]([C@H]31)[C@H](C(=O)OCC[Si](C)(C)C)N2S(=O)(=O)c1ccc(C)cc1
inactive: OVCAR-4 11.4 µM | BT-549 > 100 µM | OVCAR-5 > 100 µM | NCI-H522 > 100 µM | MOLT-4 19.5 µM | M14 26.5 µM | CCRF-CEM 54 µM | COLO 205 17.5 µM | UACC-62 > 100 µM | OVCAR-3 > 100 µM | T47D 5.32 µM | HL-60 8.85 µM | SNB-19 > 100 µM | MCF7 37.3 µM | PC-3 12.1 µM | KM12 97.3 µM | U-251 > 100 µM | A498 16.7 µM

Cc1cccc(NC(=O)/C=C/c2ccc([N+](=O)[O-])cc2)c1
inactive: OVCAR-4 > 41.4 µM | BT-549 > 34.5 µM | OVCAR-5 > 42.6 µM | NCI-H522 7.45 µM | MOLT-4 > 36.4 µM | M14 > 43.4 µM | CCRF-CEM 16 µM | COLO 205 > 41.1 µM | UACC-62 > 41.9 µM | OVCAR-3 12.5 µM | T47D > 37.8 µM | SNB-19 > 33.2 µM | MCF7 > 22.3 µM | PC-3 14.7 µM | KM12 > 33.3 µM | U-251 > 38 µM | A498 > 100 µM | SNB-75 30.1 µM

O=c1[nH]cc(/N=C/c2cc(Cl)cc(Cl)c2O)c(=O)[nH]1
inactive: OVCAR-4 21.3 µM | BT-549 45.1 µM | OVCAR-5 88.1 µM | NCI-H522 21.5 µM | MOLT-4 21.9 µM | M14 21 µM | CCRF-CEM 20 µM | COLO 205 24.8 µM | UACC-62 26.5 µM | OVCAR-3 17.7 µM | T47D 21.7 µM | HL-60 13.6 µM | SNB-19 32.8 µM | MCF7 25.8 µM | PC-3 27.8 µM | KM12 24.2 µM | U-251 32.7 µM | A498 > 100 µM

Source: ChEMBL document CHEMBL1201862, “PubChem BioAssay data set” (2004)
